Reference: US6160004A, “C-10 carbon-substituted artemisinin-like trioxane compounds having antimalarial, antiproliferative and antitumor activities” (priority 1998, dated 2000)
Read-outs that look alike come from different tables or passages of the source.

Assays:
[1] = test system: CCRF-CEM; experiment: cells; type: cell-based; details: Homo sapiens, 48 h
[2] = test system: K-562; experiment: cells; type: cell-based; details: Homo sapiens, K562, 48 h
[3] = test system: RPMI-8226; experiment: NCI 60 cell line panel screening assay (SRB), RPMI-8226; type: cell-based; details: Homo sapiens
[4] = test system: SR; experiment: cells; type: cell-based; details: Homo sapiens, 48 h
[5] = test system: HCT-116; experiment: cells; type: cell-based; details: Homo sapiens, HCT-116, 48 h, read-out: Log10 GI50 (converted)
[6] = test system: HCT-15; experiment: cells; type: cell-based; details: Homo sapiens; HCT-15, colon cancer, 48 h; read-out: Log10 LC50 (converted)
[7] = test system: HT29; experiment: cells; type: cell-based; details: Homo sapiens, HT-29, 48 h, read-out: Log10 GI50 (converted)
[8] = test system: SW-620; experiment: NCI 60 cell line panel screening assay (SRB), SW-620; type: cell-based; details: Homo sapiens
[9] = test system: SF-268; experiment: cells; type: cell-based; details: Homo sapiens; SF-268, CNS cancer, 48 h; read-out: Log10 LC50 (converted)
[10] = test system: SNB-75; experiment: cells; type: cell-based; details: Homo sapiens, SNB-75, CNS cancer, 48 h
[11] = test system: SK-MEL-28; experiment: cells; type: cell-based; details: Homo sapiens, SK-MEL-28, melanoma, 48 h
[12] = test system: UACC-257; experiment: cells; type: cell-based; details: Homo sapiens, UACC-257, 48 h
[13] = test system: SK-OV-3; experiment: cells; type: cell-based; details: Homo sapiens; SK-OV-3, ovarian cancer, 48 h; read-out: Log10 TGI (converted)
[14] = test system: TK-10; experiment: cells; type: cell-based; details: Homo sapiens, TK-10, renal cancer, 48 h
[15] = test system: PC-3; experiment: cells; type: cell-based; details: Homo sapiens; PC-3, prostate cancer, 48 h; read-out: Log10 GI50 (converted)
[16] = test system: DU-145; experiment: cells; type: cell-based; details: Homo sapiens, DU-145, 48 h; read-out: Log10 LC50 (converted)
[17] = test system: BT-549; experiment: cells; type: cell-based; details: Homo sapiens; BT-549, breast cancer, 48 h; read-out: Log10 LC50 (converted)
[18] = test system: MOLT-4; experiment: cells; details: Homo sapiens
[19] = test system: NCI-H322M; experiment: cells; details: Homo sapiens, 48 h
[20] = test system: 60 cell line panel; experiment: NCI 60 cell line panel, whole panel; details: panel
[21] = test system: T-47D; experiment: NCI 60 cell line panel screening assay (SRB), T-47D; details: Homo sapiens, T47D, 48 h
[22] = read-out: Log10 GI50 (converted)
[23] = read-out: Log10 LC50 (converted)

CC1CCC2C(C)C(CC(=O)c3ccc(C(=O)CC4OC5OC6(C)CCC7C(C)CCC(C4C)C57OO6)cc3)OC3OC4(C)CCC1C32OO4 (stereo not shown) [Dimer 38]
21.4 µM: IC (TGI) [13]
< 0.1 µM: IC50 ([18]; MOLT-4, read-out: concentration for primary growth inhibition (PG +50))
< 0.01 µM: GI50 [1, 22] | GI50 [2, 22] | GI50 ([3]; RPMI-8226, leukemia, 48 h, read-out: Log10 GI50 (converted)) | IC (TGI) ([3]; RPMI-8226, leukemia, 48 h, read-out: Log10 TGI) | GI50 [4, 22] | GI50 [5] | GI50 [7] | GI50 ([8]; SW-620, 48 h, read-out: Log10 GI50 (converted)) | GI50 [15] | GI50 ([18]; MOLT-4, 48 h, read-out: Log10 GI50 (converted)) | GI50 [21, 22]
3.8 µM: GI50 [19, 22]
3.17: Delta of Log10 TGI [20]
> 100 µM: CC50 [1, 23] | CC50 [2, 23] | CC50 ([3]; RPMI-8226, 48 h, read-out: Log10 LC50 (converted)) | CC50 ([4]; leukemia, read-out: Log10 LC50 (converted)) | CC50 [6] | CC50 ([8]; SW-620, colon cancer, 48 h, read-out: Log10 LC50 (converted)) | CC50 [9] | CC50 [10, 23] | CC50 [11, 23] | IC (TGI) ([11]; read-out: Log10 TGI) | CC50 [12, 23] | CC50 [14, 23] | IC (TGI) ([14]; read-out: Log10 TGI) | CC50 [16] | CC50 [17] | CC50 ([18]; MOLT-4, 48 h, read-out: Log10 LC50 (converted)) | CC50 ([18]; MOLT-4, read-out: concentration for cytotoxicity (PG -50)) | CC50 [19, 23] | IC (TGI) ([19]; read-out: Log10 TGI) | CC50 [21, 23]
0.0209 µM: GI50 [12, 22]
0.117 µM: GI50 [10, 22]
